From patent US20240366639A1, “HETEROCYCLIC GLP-1 AGONISTS” (GASHERBRUM BIO, INC., priority 2021, published 2024) come the findings set out here.

Structures are written as SMILES. Like-named read-outs stand apart in the source and are kept apart here. A value given as a limit tells only on which side of the number the result lay.

For the assay, the target named is T1, GLP-1 Receptor (GLP1R) (Homo sapiens, UniProt P43220).
T1 construct: host or cells: HEK293/GLP1R/CRE-LUC
Put plainly: GLP-1R agonist cAMP stimulation assay (Method 3). The note with it: HEK293/GLP1R/CRE-LUC cells (HDB), Method 3, 30 min incubation. The class given is cell-based. In short, it runs like this:
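HEK293 CRE-Luc cells stably expressing GLP-1R (1000 cells/well) were exposed to ½-log serially diluted compound in DPBS with 0.5 mM IBMX and 0.1% BSA for 30 min at 37 °C. cAMP was quantified by HTRF (cAMP-d2/anti-cAMP cryptate), 1 h at room temperature, read at 665/615 nm.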

Setting [1] is: read-out: GLP1R cAMP Stimulation DR: EC50 (nM) [Species: Human, Assay Cell Line: HDB].
The mark [2] stands for this setting: read-out: GLP1R cAMP Stimulation DR: pEC50 (M) [Species: Human, Assay Cell Line: HDB] (converted).

T1 sequence (P43220 24-463): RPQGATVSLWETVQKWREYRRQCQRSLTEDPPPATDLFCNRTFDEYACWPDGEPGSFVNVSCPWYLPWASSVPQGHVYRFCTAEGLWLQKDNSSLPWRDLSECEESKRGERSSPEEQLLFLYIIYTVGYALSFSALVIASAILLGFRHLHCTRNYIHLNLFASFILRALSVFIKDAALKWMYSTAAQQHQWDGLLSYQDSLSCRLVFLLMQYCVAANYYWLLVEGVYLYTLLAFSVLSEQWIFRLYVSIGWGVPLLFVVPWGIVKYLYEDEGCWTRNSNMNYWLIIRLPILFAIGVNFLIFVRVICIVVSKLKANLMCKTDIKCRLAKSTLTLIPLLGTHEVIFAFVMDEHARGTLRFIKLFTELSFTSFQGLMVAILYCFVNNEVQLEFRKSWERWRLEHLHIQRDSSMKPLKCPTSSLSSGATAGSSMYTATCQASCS

Turning to `CNc1cc(-n2ccn(-c3c4c(nn3-c3cc(C)c(F)c(C)c3)CCN(C(=O)c3cc5cc(C6CCOCC6)ccc5n3C3(c5noc(=O)[nH]5)CC3)[C@H]4C)c2=O)ccc1P(=O)(C1CC1)C1CC1` [Compound 148a, (S)-3-(1-(2-(3-(3-(4-(dicyclopropylphosphoryl)-3-(methylamino)phenyl)-2-oxo-2,3-dihydro-1H-imidazol-1-yl)-2-(4-fluoro-3,5-dimethylphenyl)-4-methyl-4,5,6,7-tetrahydro-2H-pyrazolo[4,3-c]pyridine-5-carbonyl)-5-(tetrahydro-2H-pyran-4-yl)-1H-indol-1-yl)cyclopropyl)-1,2,4-oxadiazol-5(4H)-one], the EC50 reads like this: under setting [1], less than 0.1 nM; under setting [2], not above 0.1 nM.
With `CCP(=O)(CC)c1ccc(-n2ccn(-c3c4c(nn3-c3cc(C)c(F)c(C)c3)CCN(C(=O)c3cc5cc(N6CCOC(C)(C)C6)ccc5n3[C@@]3(c5noc(=O)[nH]5)C[C@@H]3C)[C@H]4C)c2=O)cc1NC` [Compound 150a, 3-((1S,2S)-1-(2-((S)-3-(3-(4-(diethylphosphoryl)-3-(methylamino)phenyl)-2-oxo-2,3-dihydro-1H-imidazol-1-yl)-2-(4-fluoro-3,5-dimethylphenyl)-4-methyl-4,5,6,7-tetrahydro-2H-pyrazolo[4,3-c]pyridine-5-carbonyl)-5-(2,2-dimethylmorpholino)-1H-indol-1-yl)-2-methylcyclopropyl)-1,2,4-oxadiazol-5(4H)-one], the EC50 reads like this: under setting [1], 0.1 to 0.2 nM; under setting [2], 0.1 to 1 nM.
